Laboratory results reported in ChEMBL document CHEMBL5291721, “A preclinical secondary pharmacology resource illuminates target-adverse drug reaction associations of marketed drugs” (Nat Commun, 2023).

Experiments:
[1] = biological target: T1, Type-1 angiotensin II receptor (Homo sapiens, UniProt P30556)
T1 sequence (P30556 whole entry): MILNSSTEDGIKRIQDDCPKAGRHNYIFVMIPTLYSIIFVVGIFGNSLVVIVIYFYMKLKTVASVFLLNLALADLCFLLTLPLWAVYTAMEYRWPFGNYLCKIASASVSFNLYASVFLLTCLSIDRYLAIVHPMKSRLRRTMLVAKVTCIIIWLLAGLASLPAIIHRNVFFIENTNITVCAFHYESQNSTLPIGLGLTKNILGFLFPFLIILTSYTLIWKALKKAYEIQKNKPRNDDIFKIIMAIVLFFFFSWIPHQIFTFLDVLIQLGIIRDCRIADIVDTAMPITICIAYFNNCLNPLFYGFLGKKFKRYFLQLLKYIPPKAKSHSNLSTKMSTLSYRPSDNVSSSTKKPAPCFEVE

[2] = biological target: T2, Equilibrative nucleoside transporter 1 (Homo sapiens, UniProt Q99808)
T2 sequence (Q99808 whole entry): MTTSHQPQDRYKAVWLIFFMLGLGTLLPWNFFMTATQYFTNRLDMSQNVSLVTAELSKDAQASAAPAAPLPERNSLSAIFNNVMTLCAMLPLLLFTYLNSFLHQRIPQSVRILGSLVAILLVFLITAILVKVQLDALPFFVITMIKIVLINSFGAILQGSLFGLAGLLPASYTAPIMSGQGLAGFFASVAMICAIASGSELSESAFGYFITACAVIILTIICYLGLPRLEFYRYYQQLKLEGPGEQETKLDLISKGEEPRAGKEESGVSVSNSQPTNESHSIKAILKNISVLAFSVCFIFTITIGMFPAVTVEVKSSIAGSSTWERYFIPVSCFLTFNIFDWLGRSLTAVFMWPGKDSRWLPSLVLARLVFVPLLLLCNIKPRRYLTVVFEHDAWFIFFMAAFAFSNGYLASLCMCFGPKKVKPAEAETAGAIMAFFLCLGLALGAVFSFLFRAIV

[3] = biological target: T3, Muscarinic acetylcholine receptor M2 (Homo sapiens, UniProt P08172); format: functional, cell-based
T3 sequence (P08172 whole entry): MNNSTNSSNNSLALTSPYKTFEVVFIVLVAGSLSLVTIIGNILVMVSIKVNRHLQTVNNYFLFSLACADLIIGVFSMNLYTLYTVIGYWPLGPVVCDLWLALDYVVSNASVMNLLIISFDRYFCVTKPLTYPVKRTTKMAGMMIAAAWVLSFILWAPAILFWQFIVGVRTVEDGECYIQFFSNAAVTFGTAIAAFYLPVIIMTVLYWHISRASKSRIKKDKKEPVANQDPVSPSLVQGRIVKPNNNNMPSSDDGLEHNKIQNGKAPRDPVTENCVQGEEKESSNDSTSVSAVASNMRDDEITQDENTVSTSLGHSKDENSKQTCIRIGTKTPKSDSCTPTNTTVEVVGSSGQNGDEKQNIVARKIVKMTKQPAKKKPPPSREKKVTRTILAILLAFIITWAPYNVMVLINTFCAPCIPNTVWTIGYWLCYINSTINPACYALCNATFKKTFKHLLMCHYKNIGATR

[4] = biological target: T3, Muscarinic acetylcholine receptor M2; format: functional, cell-based; remark: listed apart in the source
[5] = biological target: Beta-1 adrenergic receptor (Homo sapiens, UniProt P08588); format: functional
Progesterone receptor = biological target: T4, Progesterone receptor (Homo sapiens, UniProt P06401); format: functional
T4 sequence (P06401 whole entry): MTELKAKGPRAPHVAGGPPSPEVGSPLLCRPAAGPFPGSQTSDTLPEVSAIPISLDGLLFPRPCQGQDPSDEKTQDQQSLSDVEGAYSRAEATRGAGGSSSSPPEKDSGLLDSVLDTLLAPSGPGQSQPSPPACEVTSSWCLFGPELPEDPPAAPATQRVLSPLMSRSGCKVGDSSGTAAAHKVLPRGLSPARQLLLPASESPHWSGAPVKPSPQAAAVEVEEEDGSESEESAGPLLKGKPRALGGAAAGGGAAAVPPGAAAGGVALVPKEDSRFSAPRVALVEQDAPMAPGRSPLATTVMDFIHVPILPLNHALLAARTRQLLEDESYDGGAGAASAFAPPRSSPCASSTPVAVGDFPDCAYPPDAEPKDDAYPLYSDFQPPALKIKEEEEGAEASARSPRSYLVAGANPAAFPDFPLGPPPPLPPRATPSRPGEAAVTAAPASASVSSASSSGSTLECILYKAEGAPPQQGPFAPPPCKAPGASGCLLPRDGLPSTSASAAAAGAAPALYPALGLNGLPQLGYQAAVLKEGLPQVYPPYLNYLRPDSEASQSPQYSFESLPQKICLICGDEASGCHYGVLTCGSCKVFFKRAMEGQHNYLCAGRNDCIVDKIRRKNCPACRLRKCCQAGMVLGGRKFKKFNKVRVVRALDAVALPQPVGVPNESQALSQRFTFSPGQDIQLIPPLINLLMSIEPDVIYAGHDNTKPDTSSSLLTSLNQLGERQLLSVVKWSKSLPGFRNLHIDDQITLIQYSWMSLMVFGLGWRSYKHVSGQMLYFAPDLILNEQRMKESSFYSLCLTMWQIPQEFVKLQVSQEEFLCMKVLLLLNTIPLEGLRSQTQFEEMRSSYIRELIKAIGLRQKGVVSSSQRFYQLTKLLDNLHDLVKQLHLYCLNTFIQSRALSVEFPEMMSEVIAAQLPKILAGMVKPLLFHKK

[6] = biological target: Delta-type opioid receptor (Homo sapiens, UniProt P41143)
[7] = biological target: 5-hydroxytryptamine receptor 2A (Homo sapiens, UniProt P28223); format: functional, cell-based
Further: assay procedure not described here.

5-hydroxytryptamine receptor 2A, sequence (P28223 whole entry): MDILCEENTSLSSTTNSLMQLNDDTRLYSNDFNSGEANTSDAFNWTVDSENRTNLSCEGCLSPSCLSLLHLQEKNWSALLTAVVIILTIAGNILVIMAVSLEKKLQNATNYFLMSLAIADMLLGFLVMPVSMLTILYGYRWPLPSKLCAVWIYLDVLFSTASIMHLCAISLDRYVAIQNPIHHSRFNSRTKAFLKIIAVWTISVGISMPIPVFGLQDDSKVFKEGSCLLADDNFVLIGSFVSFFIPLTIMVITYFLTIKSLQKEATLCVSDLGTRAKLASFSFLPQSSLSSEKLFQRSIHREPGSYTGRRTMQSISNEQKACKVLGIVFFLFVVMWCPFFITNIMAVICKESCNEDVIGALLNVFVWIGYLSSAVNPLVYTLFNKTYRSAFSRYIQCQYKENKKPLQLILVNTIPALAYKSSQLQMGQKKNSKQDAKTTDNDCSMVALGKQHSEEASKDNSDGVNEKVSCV
Delta-type opioid receptor, sequence (P41143 whole entry): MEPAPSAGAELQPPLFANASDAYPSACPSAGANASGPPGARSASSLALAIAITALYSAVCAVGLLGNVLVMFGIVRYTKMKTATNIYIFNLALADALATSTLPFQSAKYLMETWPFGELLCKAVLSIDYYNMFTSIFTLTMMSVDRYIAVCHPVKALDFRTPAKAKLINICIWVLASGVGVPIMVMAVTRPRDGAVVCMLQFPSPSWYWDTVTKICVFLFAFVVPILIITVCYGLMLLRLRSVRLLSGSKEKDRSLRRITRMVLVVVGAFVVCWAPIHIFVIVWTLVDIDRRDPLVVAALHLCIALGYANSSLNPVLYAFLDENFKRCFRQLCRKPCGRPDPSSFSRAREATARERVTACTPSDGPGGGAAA
Beta-1 adrenergic receptor, sequence (P08588 whole entry): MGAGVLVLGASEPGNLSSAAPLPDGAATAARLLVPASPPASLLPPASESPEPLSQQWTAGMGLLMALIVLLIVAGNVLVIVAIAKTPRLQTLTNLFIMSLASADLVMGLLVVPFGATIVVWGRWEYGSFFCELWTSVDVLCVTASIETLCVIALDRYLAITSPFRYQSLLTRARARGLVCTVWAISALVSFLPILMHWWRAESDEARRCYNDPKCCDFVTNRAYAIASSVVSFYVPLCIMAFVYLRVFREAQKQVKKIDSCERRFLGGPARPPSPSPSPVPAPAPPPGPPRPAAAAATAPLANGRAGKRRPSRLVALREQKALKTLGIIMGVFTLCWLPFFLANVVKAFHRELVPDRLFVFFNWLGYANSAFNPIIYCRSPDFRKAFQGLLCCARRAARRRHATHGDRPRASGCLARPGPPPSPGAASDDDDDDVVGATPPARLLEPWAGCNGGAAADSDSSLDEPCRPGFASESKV

With CC(C)CN(C[C@@H](O)[C@H](Cc1ccccc1)NC(=O)O[C@H]1CCOC1)S(=O)(=O)c1ccc(N)cc1 the AC50 [1] was greater than 10 µM, the AC50 [2] was greater than 10 µM and the AC50 [3] was greater than 10 µM. For the same compound, the AC50 [4] was greater than 10 µM, the AC50 [5] was greater than 10 µM and the AC50 (Progesterone receptor) was greater than 10 µM. It also gave an AC50 [6] greater than 30 µM.

With NS(=O)(=O)c1ccc(N2CCCCS2(=O)=O)cc1 the AC50 [1] was greater than 30 µM, the AC50 [7] was greater than 30 µM and the AC50 [3] was greater than 30 µM. The AC50 [4] was greater than 30 µM, the AC50 [5] was greater than 30 µM and the AC50 [6] was greater than 30 µM.

CNCCc1ccccn1 [BETAHISTINE] gave an AC50 [1] greater than 30 µM, an AC50 [2] greater than 30 µM and an AC50 [3] greater than 30 µM. The AC50 [4] was greater than 30 µM, the AC50 (Progesterone receptor) was greater than 30 µM and the AC50 [6] was greater than 30 µM.

CCCCOC(=O)c1ccc(N)cc1 [BUTAMBEN] showed an AC50 [1] greater than 30 µM, an AC50 [2] greater than 30 µM and an AC50 [3] greater than 30 µM. The AC50 [4] was greater than 30 µM, the AC50 [5] was greater than 30 µM and the AC50 (Progesterone receptor) was greater than 30 µM. It also gave an AC50 [6] greater than 30 µM.

Compound CN(Cc1ccc(C(C)(C)C)cc1)Cc1cccc2ccccc12 [BUTENAFINE] has an AC50 [1] greater than 10 µM, an AC50 [2] greater than 10 µM and an AC50 [3] greater than 10 µM. The AC50 [4] was greater than 10 µM, the AC50 [5] was greater than 10 µM and the AC50 (Progesterone receptor) was greater than 30 µM. It also gave an AC50 [6] greater than 30 µM.

With Oc1cc(O)c2c(c1)O[C@H](c1ccc(O)c(O)c1)[C@@H](O)C2 [CIANIDANOL] the AC50 [1] was greater than 30 µM, the AC50 [7] was greater than 30 µM and the AC50 [2] was greater than 30 µM. It also gave an AC50 [3] greater than 10 µM, an AC50 [4] greater than 10 µM and an AC50 [5] greater than 10 µM. For the same compound, the AC50 [6] was greater than 30 µM.

CC1CC(OC(=O)C(O)c2ccccc2)CC(C)(C)C1 (stereo unspecified) [CYCLANDELATE] was tested, and the AC50 [1] was greater than 10 µM, the AC50 [2] was greater than 30 µM and the AC50 [3] was greater than 10 µM. For the same compound, the AC50 [4] was greater than 10 µM, the AC50 [5] was greater than 10 µM and the AC50 (Progesterone receptor) was greater than 30 µM. For the same compound, the AC50 [6] was greater than 30 µM.

In the case of CC(=O)Oc1cccc2c1C(=O)c1c(OC(C)=O)cc(C(=O)O)cc1C2=O [DIACEREIN], the AC50 [1] was greater than 30 µM, the AC50 [7] was greater than 30 µM and the AC50 [2] was 4.8 µM. For the same compound, the AC50 [3] was 12 µM, the AC50 [5] was greater than 30 µM and the AC50 [6] was greater than 30 µM.

Compound CCc1ccc(C(=O)C(C)CN2CCCCC2)cc1 (stereo unspecified) [EPERISONE] has an AC50 [1] greater than 30 µM, an AC50 [2] greater than 30 µM and an AC50 [3] greater than 30 µM. It also gave an AC50 [4] of 2.2 µM, an AC50 [5] greater than 30 µM and an AC50 (Progesterone receptor) greater than 30 µM. It also gave an AC50 [6] of 19 µM.

Compound CCC1(C)CC(=O)NC1=O (stereo unspecified) [ETHOSUXIMIDE] has an AC50 [1] greater than 10 µM, an AC50 [2] greater than 10 µM and an AC50 [3] greater than 10 µM. It also gave an AC50 [4] greater than 10 µM, an AC50 [5] greater than 10 µM and an AC50 (Progesterone receptor) greater than 10 µM. It also gave an AC50 [6] greater than 30 µM.

For Cc1ccc(-c2ncc(Cl)cc2-c2ccc(S(C)(=O)=O)cc2)cn1 [ETORICOXIB], the AC50 [1] was greater than 10 µM, the AC50 [7] was greater than 30 µM and the AC50 [2] was greater than 30 µM. It also gave an AC50 [3] greater than 10 µM, an AC50 [4] greater than 10 µM and an AC50 [5] greater than 10 µM. For the same compound, the AC50 [6] was greater than 10 µM.

With COc1ccc2c3c1O[C@H]1C(=O)CC[C@H]4[C@@H](C2)N(C)CC[C@]314 [HYDROCODONE] the AC50 [1] was greater than 30 µM, the AC50 [7] was greater than 30 µM and the AC50 [2] was greater than 30 µM. It also gave an AC50 [3] greater than 10 µM, an AC50 [4] greater than 10 µM and an AC50 [5] greater than 10 µM.

For CC1Cc2ccccc2N1NC(=O)c1ccc(Cl)c(S(N)(=O)=O)c1 (stereo unspecified) [INDAPAMIDE], the AC50 [1] was greater than 30 µM, the AC50 [2] was greater than 30 µM and the AC50 [3] was greater than 10 µM. It also gave an AC50 [4] greater than 10 µM, an AC50 [5] greater than 10 µM and an AC50 [6] greater than 30 µM.
